In patent US11142504B2, “Substituted heterocycles as c-MYC targeting agents” (Northwestern University, priority 2016, dated 2021):

Tests used:
MycCap cells = assay: Cell viability of MycCap cells; type: cell-based; details: Mus musculus, Myc-CaP
PC12 cells = assay: Cell viability of PC12 cells; type: cell-based; details: Rattus norvegicus, PC-12; Cell viability of PC12 cells
Procedure: PC3 prostate cancer cell line with high Myc level and PC12 pheochromocytoma tumor cell line with non functional Max protein, which is not dependent on Myc-Max complex, were phased from ATCC. Cells were plated in 96 well plate at 1000 cells per well, and Myc inhibitor 361 at various concentrations was added to the cells next day. After 3 days of treatment, fresh medium with 361 were added again, and cell viability was measured by MTS assay at day 5 after the treatment. (See FIG. 11).

[1] = Stability in mouse liver microsomes; type: in vitro ADME; details: % remaining of compound after 60 min treatment with mouse liver microsomes
Procedure: In vitro metabolism of NUCC-176242 and NUCC-176248 were tested using mouse liver microsomes and a mouse S9 fraction. (See FIG. 9).

Cn1nc(-c2ccc(OCc3ccc(Cl)cc3)c(-c3cccc(C#N)c3)c2O)cc1C(N)=O [NUCC-0200558]
IC50 (MycCap cells): 49.3 µM | IC50 (PC12 cells): 31 µM

CC(C)CCOc1ccc(-c2cc(C(F)(F)F)n[nH]2)c(O)c1-c1cncc(C#N)c1 [NUCC-0201195]
IC50 (MycCap cells): 14.9 µM | IC50 (PC12 cells): 70.3 µM

Cn1nc(-c2ccc(OCc3ccc(Cl)cc3)c(-c3cncc(C#N)c3)c2O)cc1C(F)(F)F [NUCC-0201633]
IC50 (MycCap cells): 4.6 µM | IC50 (PC12 cells): 27.3 µM

CCc1ccc(Oc2c(-c3ccc(OCc4ccc(Cl)c(Cl)c4)cc3O)n[nH]c2C(F)(F)F)cc1 [NUCC-0196355]
IC50 (MycCap cells): 11.8 µM

CCc1ccc(Oc2c(-c3ccc(OCCc4ccc(Cl)cc4)cc3O)n[nH]c2C(F)(F)F)cc1 [NUCC-0196357]
IC50 (MycCap cells): 6.9 µM

CCc1ccc(Oc2c(-c3ccc(O)cc3O)n[nH]c2C(F)(F)F)cc1 [NUCC-0198406]
IC50 (MycCap cells): 17.5 µM

C#CCC(N=[N+]=[N-])C(=O)Nc1ccc(COc2ccc(-c3cc(C(F)(F)F)n(C)n3)c(O)c2-c2cncc(C(F)(F)F)c2)cc1 (centres unmarked) [NUCC-0201699]
IC50 (MycCap cells): 24.3 µM

N#Cc1ccc(-c2c(OCc3ccc(Cl)cc3)ccc(-c3cc(C(F)(F)F)[nH]n3)c2O)cc1 [NUCC-0198391]
IC50 (MycCap cells): 3.4 µM

COc1ccc(-c2cc(C(F)(F)F)[nH]n2)c(O)c1-c1cc(C(F)(F)F)cc(C(F)(F)F)c1 [NUCC-0201220]
IC50 (MycCap cells): 4.9 µM | IC50 (PC12 cells): 91.6 µM

CCc1c(OCc2ccc(Cl)cc2)ccc(-c2cc(C(F)(F)F)n[nH]2)c1O [NUCC-0200739]
IC50 (MycCap cells): 2.2 µM | IC50 (PC12 cells): 19.4 µM | MLM % at 60 min [1]: 46.4%

Cn1nc(C(F)(F)F)cc1-c1ccc(OCc2ccc(Cl)cc2)c(-c2cncc(C(F)(F)F)c2)c1O [NUCC-0201630]
IC50 (MycCap cells): 15.4 µM | IC50 (PC12 cells): 42.3 µM

O=C1CCC(N2C(=O)c3cccc(OCc4cn(CCOCCOCCOCCOCC(=O)Nc5ccc(COc6ccc(-c7cc(C(F)(F)F)n[nH]7)c(O)c6-c6cc(C(F)(F)F)cc(C(F)(F)F)c6)cc5)nn4)c3C2=O)C(=O)N1 (centres unmarked) [NUCC-0201203]
IC50 (MycCap cells): 32.4 µM

Cn1nc(C(F)(F)F)cc1-c1ccc(OCc2ccc(Cl)cc2)c(Br)c1O [NUCC-0198407]
IC50 (MycCap cells): 7.8 µM

Oc1c(-c2cc(C(F)(F)F)n[nH]2)ccc(OCCN2CCCC2)c1-c1cc(C(F)(F)F)cc(C(F)(F)F)c1 [NUCC-0201032]
IC50 (MycCap cells): 1 µM | IC50 (PC12 cells): 11 µM | MLM % at 60 min [1]: 30.5%

Cn1nc(C(F)(F)F)cc1-c1ccc(OCc2ccc(Cl)cc2)cc1C=O [NUCC-0200976]
IC50 (MycCap cells): 3.9 µM | IC50 (PC12 cells): 63.3 µM | MLM % at 60 min [1]: 21.8%

O=C1CCC(N2C(=O)c3cccc(OCc4cn(CCOCCOCCOCC(=O)Nc5ccc(COc6ccc(-c7cc(C(F)(F)F)n[nH]7)c(O)c6-c6cc(C(F)(F)F)cc(C(F)(F)F)c6)cc5)nn4)c3C2=O)C(=O)N1 (centres unmarked) [NUCC-0201202]
IC50 (MycCap cells): 4 µM | IC50 (PC12 cells): 23.1 µM

Cn1nc(C(F)(F)F)cc1-c1ccc(OCc2ccc(Cl)cc2)c(-c2cccc(C(F)(F)F)c2)c1O [NUCC-0200974]
IC50 (MycCap cells): 10.2 µM

Cn1nc(-c2ccc(OCc3ccc(Cl)cc3)c(-c3cc(C(F)(F)F)cc(C(F)(F)F)c3)c2O)cc1C(F)(F)F [NUCC-0196360]
IC50 (MycCap cells): 39.6 µM

COc1ccc(-c2cc(C(F)(F)F)n(C)n2)c(O)c1-c1cc(C(F)(F)F)cc(C(F)(F)F)c1 [NUCC-0201221]
IC50 (MycCap cells): 1.2 µM

Oc1cc(OCc2ccc(Cl)cc2)ccc1-c1n[nH]cc1-c1ccoc1 [NUCC-0198322]
IC50 (MycCap cells): 6.5 µM

CCCCOc1ccc(-c2cc(C(F)(F)F)n(C)n2)c(O)c1-c1ccc(Cl)c(C(F)(F)F)c1 [NUCC-0201227]
IC50 (MycCap cells): 4.5 µM | IC50 (PC12 cells): 1 µM

CC(CCOc1ccc(-c2cc(C(F)(F)F)n[nH]2)c(O)c1-c1cc(C(F)(F)F)cc(C(F)(F)F)c1)C(F)(F)F (centres unmarked) [NUCC-0201198]
IC50 (MycCap cells): 2.6 µM | IC50 (PC12 cells): 8.2 µM

CCCCCCOc1ccc(-c2cc(C(F)(F)F)n(C)n2)c(O)c1-c1cncc(C#N)c1 [NUCC-0201212]
IC50 (MycCap cells): 23.7 µM | IC50 (PC12 cells): 30.8 µM

CCCCOc1ccc(-c2cc(C(F)(F)F)nn2C)c(O)c1-c1cncc(C(F)(F)F)c1 [NUCC-0201204]
IC50 (MycCap cells): 23 µM

COc1ccc(-c2c(-c3ccc(OCc4ccc(Cl)cc4)cc3O)n[nH]c2C(F)(F)F)cc1OC [NUCC-0196283]
IC50 (MycCap cells): 2.3 µM

CCOc1ncc(C(F)(F)F)cc1-c1c(OCc2ccc(Cl)cc2)ccc(-c2cc(C(F)(F)F)n[nH]2)c1O [NUCC-0201039]
IC50 (MycCap cells): 13.6 µM

Oc1c(-c2cc(C(F)(F)F)[nH]n2)ccc(Oc2ccc(Cl)cc2)c1-c1cc(C(F)(F)F)cc(C(F)(F)F)c1 [NUCC-0201223]
IC50 (MycCap cells): 5.1 µM | IC50 (PC12 cells): 40.6 µM | MLM % at 60 min [1]: 75.8%

Oc1cc(OCc2ccc(Cl)cc2)ccc1-c1cc(C(F)(F)F)[nH]n1 [NUCC-0196313]
IC50 (MycCap cells): 4.2 µM

COc1ccc(COc2ccc(-c3cc(C(F)(F)F)n[nH]3)c(O)c2-c2cc(C(F)(F)F)cc(C(F)(F)F)c2)cc1 [NUCC-0201041]
IC50 (MycCap cells): 12.6 µM | IC50 (PC12 cells): 128 µM

CCCOc1ccc(-c2cc(C(F)(F)F)n[nH]2)c(O)c1-c1cc(C(F)(F)F)cc(C(F)(F)F)c1 [NUCC-0201197]
IC50 (MycCap cells): 3.4 µM | IC50 (PC12 cells): 18.6 µM

[N-]=[N+]=NCCOCCOCCOCC(=O)Nc1ccc(COc2ccc(-c3cc(C(F)(F)F)n[nH]3)c(O)c2-c2cc(C(F)(F)F)cc(C(F)(F)F)c2)cc1 [NUCC-0201199]
IC50 (MycCap cells): 3 µM | IC50 (PC12 cells): 12.7 µM

CCCCCCOc1ccc(-c2cc(C(F)(F)F)n[nH]2)c(O)c1-c1cncc(C#N)c1 [NUCC-0201194]
IC50 (MycCap cells): 4.2 µM | IC50 (PC12 cells): 59.8 µM

COc1ccc(-c2c(-c3ccc(OCc4ccc(Cl)cc4)cc3O)n[nH]c2C(F)(F)F)cc1 [NUCC-0196312]
IC50 (MycCap cells): 4.8 µM

C#CCOc1ccc(COc2ccc(-c3cc(C(F)(F)F)n[nH]3)c(O)c2-c2cc(C(F)(F)F)cc(C(F)(F)F)c2)cc1 [NUCC-0201219]
IC50 (MycCap cells): 9.5 µM

Cn1nc(-c2ccc(OCc3ccc(Cl)cc3)c(-c3ccc(F)cc3)c2O)cc1C(F)(F)F [NUCC-0196348]
IC50 (MycCap cells): 110 µM

CCc1ccc(Oc2c(-c3ccc(OCCc4cccc(C(F)(F)F)c4)cc3O)n[nH]c2C(F)(F)F)cc1 [NUCC-0176245]
IC50 (MycCap cells): 4.1 µM

N#Cc1cccc(-c2c(OCc3ccc(Cl)cc3)ccc(-c3cc(C(F)(F)F)[nH]n3)c2O)c1 [NUCC-0198398]
IC50 (MycCap cells): 4.3 µM

CCc1ccc(Oc2c(-c3ccc(OCc4cccc(Cl)c4)cc3O)n[nH]c2C(F)(F)F)cc1 [NUCC-0196295]
IC50 (MycCap cells): 12.2 µM

N#Cc1cncc(-c2c(OCc3ccc(Cl)cc3)ccc(-c3cc(C(F)(F)F)n[nH]3)c2O)c1 [NUCC-0201038]
IC50 (MycCap cells): 6.8 µM | IC50 (PC12 cells): 18.3 µM

CCCCOc1ccc(-c2cc(C(F)(F)F)n[nH]2)c(O)c1-c1ccc(Cl)c(C(F)(F)F)c1 [NUCC-0201225]
IC50 (MycCap cells): 19 µM | IC50 (PC12 cells): 82.6 µM

Cn1nc(C(F)(F)F)cc1-c1ccc(OCc2ccc(Cl)cc2)c(-c2cccc(C#N)c2)c1O [NUCC-0198399]
IC50 (MycCap cells): 2.5 µM | MLM % at 60 min [1]: 80.3%

Oc1cc(OCc2ccc(Cl)cc2)ccc1-c1n[nH]cc1-c1cccc(Cl)c1 [NUCC-0196350]
IC50 (MycCap cells): 4.3 µM

CCCCOc1ccc(-c2cc(C(F)(F)F)n(C)n2)c(O)c1-c1cncc(C(F)(F)F)c1 [NUCC-0201209]
IC50 (MycCap cells): 4.4 µM | MLM % at 60 min [1]: 10.3%

Cn1nc(-c2ccc(OCCCNC(=O)OC(C)(C)C)c(-c3cncc(C(F)(F)F)c3)c2O)cc1C(F)(F)F [NUCC-0201656]
IC50 (MycCap cells): 5.5 µM | IC50 (PC12 cells): 18 µM

CCCCCCOc1ccc(-c2cc(C(F)(F)F)nn2C)c(O)c1-c1cncc(C#N)c1 [NUCC-0201207]
IC50 (MycCap cells): 5.7 µM | MLM % at 60 min [1]: 52.7%

Oc1cc(OCc2ccc(Cl)cc2)ccc1-c1n[nH]cc1-c1cc(C(F)(F)F)cc(C(F)(F)F)c1 [NUCC-0198318]
IC50 (MycCap cells): 4.3 µM

Cc1cc(C)c(-c2c[nH]nc2-c2ccc(OCc3ccc(Cl)cc3)cc2O)c(C)c1 [NUCC-0198359]
IC50 (MycCap cells): 7.6 µM

CC(C)CCOc1ccc(-c2cc(C(F)(F)F)nn2C)c(O)c1-c1cncc(C(F)(F)F)c1 [NUCC-0201206]
IC50 (MycCap cells): 5 µM

Cc1ccc(-c2c(OCc3ccc(Cl)cc3)ccc(-c3cc(C(F)(F)F)[nH]n3)c2O)cc1 [NUCC-0196344]
IC50 (MycCap cells): 6.6 µM

CCCCCCOc1ccc(-c2cc(C(F)(F)F)n[nH]2)c(O)c1-c1cc(C(F)(F)F)cc(C(F)(F)F)c1 [NUCC-0201196]
IC50 (MycCap cells): 4.5 µM | MLM % at 60 min [1]: 66.6%

NC(=O)c1ccc(-c2c(OCc3ccc(Cl)cc3)ccc(-c3cc(C(F)(F)F)[nH]n3)c2O)cc1 [NUCC-0198394]
IC50 (MycCap cells): 7.3 µM

O=C(O)c1cc(-c2ccc(OCc3ccc(Cl)cc3)c(-c3cc(C(F)(F)F)cc(C(F)(F)F)c3)c2O)n[nH]1 [NUCC-0200973]
IC50 (MycCap cells): 68.3 µM | IC50 (PC12 cells): 29.6 µM

CCCCCCOc1ccc(-c2cc(C(F)(F)F)nn2C)c(O)c1-c1cncc(C(F)(F)F)c1 [NUCC-0201205]
IC50 (MycCap cells): 9.5 µM | IC50 (PC12 cells): 36.3 µM
